The source of these data is patent US6642246B1 (priority 1999, dated 2003).

For orientation: Kd means the free concentration of one partner at which half of the binding sites on the other are occupied at equilibrium, for simple one-to-one binding. A higher Kd goes with lower affinity.

The target in the assay is α7 nAChR subtype (Rattus norvegicus, UniProt Q05941). Type of assay: binding.
Chain of α7 nAChR subtype (Q05941 23-502 limits assumed): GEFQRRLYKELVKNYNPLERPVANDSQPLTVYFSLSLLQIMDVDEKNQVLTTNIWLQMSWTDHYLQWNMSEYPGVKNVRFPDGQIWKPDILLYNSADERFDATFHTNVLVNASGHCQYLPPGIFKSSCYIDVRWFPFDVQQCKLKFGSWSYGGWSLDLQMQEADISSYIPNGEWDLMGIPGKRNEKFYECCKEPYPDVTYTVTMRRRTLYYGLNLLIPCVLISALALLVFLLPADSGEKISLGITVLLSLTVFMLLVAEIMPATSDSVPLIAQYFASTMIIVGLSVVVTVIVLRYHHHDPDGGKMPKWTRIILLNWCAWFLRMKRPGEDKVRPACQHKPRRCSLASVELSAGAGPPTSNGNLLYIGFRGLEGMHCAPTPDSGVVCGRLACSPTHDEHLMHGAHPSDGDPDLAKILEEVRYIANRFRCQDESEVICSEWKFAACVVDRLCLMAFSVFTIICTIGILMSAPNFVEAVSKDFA

^125I-α-Bungarotoxin [^125I-α-BTX] returned a dissociation constant (Kd) of 1.67 nM. That is a single-digit nanomolar value.
